Reference: the kinase profiling compilation of Christmann-Franck et al. (2016)

Assays:
Test in all cases: radiometric filter-binding kinase assay, Kinaseprofiler
[1] = system: MARK1 (human), Q9P0L2 [V16E/T20S]; conditions: ATP 10 µM
[2] = system: MERTK (human), Q12866 [H628Q/R794A]; conditions: ATP 45 µM
[3] = system: RAF1 (human), P04049 [Y340D/Y341D]; conditions: ATP 45 µM
[4] = system: MAPKAPK2 (human), P49137 [A399G]; conditions: ATP 90 µM
[5] = system: AURKA (human), O14965 [I31F]; conditions: ATP 15 µM
Chain of AURKA (human), O14965 [I31F] (O14965 whole entry, looked up, stated change not applied): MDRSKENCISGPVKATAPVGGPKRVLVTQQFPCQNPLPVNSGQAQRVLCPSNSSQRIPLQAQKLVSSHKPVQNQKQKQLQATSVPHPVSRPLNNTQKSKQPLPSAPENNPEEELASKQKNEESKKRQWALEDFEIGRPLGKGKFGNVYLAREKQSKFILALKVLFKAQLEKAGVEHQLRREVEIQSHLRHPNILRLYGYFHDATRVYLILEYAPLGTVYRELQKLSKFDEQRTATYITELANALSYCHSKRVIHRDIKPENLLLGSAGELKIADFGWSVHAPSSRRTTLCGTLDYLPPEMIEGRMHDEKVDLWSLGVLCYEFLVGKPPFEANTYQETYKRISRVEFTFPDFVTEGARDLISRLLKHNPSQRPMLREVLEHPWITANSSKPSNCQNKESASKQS

[6] = system: TEC (human), P42680 [F514V]; conditions: ATP 120 µM
Chain of TEC (human), P42680 [F514V] (P42680 whole entry, looked up, stated change not applied): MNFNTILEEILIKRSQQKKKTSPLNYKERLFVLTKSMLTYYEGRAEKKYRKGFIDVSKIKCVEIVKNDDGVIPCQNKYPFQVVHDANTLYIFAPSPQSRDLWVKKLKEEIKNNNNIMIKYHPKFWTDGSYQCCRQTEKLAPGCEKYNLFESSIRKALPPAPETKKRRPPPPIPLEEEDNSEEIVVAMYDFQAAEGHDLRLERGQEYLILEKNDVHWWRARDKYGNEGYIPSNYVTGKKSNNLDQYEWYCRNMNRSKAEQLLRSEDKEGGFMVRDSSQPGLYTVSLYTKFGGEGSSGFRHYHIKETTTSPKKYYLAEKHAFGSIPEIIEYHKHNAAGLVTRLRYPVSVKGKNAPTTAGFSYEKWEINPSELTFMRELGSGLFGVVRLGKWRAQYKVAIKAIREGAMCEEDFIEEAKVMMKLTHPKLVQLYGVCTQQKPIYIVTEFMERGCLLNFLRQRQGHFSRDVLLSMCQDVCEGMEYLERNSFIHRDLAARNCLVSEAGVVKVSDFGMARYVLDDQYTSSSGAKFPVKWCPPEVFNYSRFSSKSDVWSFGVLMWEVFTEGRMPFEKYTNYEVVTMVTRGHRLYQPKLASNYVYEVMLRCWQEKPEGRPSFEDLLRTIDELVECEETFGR

[7] = system: AKT2 (human), P31751 [S474D]; conditions: ATP 200 µM
Chain of AKT2 (human), P31751 [S474D] (P31751 whole entry S474D, looked up): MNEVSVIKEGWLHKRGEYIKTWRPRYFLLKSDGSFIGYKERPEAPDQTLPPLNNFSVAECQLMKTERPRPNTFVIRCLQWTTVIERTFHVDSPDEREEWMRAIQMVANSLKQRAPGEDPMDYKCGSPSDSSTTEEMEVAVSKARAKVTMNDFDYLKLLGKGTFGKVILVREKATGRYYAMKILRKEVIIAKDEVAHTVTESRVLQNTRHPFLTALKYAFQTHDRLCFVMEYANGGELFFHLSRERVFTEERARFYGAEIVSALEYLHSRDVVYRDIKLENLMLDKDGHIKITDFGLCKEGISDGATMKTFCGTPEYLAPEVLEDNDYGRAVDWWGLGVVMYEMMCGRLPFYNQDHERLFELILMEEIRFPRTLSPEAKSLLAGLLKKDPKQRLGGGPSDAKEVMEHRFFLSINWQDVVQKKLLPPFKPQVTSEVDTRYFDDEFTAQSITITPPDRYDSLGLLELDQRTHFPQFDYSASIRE

[8] = system: PRKCH (human), P24723 [V108L/G109R/L392Q]; conditions: ATP 45 µM
Chain of PRKCH (human), P24723 [V108L/G109R/L392Q] (P24723 whole entry, looked up, stated change not applied): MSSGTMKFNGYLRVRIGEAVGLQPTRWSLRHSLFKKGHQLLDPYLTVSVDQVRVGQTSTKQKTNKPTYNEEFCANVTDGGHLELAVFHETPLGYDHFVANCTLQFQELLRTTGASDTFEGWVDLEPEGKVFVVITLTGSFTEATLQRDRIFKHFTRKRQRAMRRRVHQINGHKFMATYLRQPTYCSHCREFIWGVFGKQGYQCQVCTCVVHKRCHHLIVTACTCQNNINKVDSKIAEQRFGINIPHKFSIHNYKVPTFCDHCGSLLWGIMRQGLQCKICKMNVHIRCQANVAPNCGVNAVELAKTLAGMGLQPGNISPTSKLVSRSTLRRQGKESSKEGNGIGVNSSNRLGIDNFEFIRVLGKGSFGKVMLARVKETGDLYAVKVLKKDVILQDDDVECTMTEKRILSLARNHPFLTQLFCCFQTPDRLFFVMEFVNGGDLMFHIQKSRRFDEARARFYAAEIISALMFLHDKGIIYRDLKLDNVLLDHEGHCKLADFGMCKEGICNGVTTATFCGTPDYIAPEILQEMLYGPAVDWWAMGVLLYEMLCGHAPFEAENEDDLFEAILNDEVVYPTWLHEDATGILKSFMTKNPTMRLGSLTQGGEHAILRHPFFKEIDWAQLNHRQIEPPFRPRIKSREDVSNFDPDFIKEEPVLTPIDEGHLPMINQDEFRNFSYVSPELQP

Chain of MARK1 (human), Q9P0L2 [V16E/T20S] (Q9P0L2 whole entry, looked up, stated change not applied): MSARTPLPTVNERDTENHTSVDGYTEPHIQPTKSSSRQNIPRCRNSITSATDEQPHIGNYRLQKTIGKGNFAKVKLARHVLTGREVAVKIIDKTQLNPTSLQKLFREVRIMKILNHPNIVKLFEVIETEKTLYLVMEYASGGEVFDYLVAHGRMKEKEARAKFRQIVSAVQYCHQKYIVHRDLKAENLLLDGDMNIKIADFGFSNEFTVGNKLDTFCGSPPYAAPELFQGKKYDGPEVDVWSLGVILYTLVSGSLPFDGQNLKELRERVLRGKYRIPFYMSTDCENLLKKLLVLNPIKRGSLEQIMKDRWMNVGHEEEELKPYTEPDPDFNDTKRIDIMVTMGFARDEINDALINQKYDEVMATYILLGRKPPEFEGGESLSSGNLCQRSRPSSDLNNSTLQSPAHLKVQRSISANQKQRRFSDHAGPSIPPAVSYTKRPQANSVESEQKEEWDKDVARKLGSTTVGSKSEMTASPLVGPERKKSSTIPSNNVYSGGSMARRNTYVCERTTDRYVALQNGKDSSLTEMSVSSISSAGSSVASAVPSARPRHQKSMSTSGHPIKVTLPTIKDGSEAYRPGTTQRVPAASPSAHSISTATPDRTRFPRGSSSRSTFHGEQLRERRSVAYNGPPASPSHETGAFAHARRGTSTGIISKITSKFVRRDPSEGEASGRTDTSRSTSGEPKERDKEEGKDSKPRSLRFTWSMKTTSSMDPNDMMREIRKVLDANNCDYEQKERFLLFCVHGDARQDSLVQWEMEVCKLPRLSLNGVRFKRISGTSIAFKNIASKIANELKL
Chain of MAPKAPK2 (human), P49137 [A399G] (P49137 whole entry A399G, looked up): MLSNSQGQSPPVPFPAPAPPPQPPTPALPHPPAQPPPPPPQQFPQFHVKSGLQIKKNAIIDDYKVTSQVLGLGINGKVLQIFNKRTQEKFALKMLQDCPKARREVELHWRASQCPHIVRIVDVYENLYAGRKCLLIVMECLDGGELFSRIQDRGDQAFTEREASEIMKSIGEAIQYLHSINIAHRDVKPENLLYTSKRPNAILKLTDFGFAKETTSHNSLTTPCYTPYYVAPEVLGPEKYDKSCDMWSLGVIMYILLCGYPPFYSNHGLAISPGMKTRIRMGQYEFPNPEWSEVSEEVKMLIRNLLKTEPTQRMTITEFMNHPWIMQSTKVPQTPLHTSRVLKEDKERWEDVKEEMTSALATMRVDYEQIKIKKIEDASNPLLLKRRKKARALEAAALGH
Chain of MERTK (human), Q12866 [H628Q/R794A] (Q12866 whole entry, looked up, stated change not applied): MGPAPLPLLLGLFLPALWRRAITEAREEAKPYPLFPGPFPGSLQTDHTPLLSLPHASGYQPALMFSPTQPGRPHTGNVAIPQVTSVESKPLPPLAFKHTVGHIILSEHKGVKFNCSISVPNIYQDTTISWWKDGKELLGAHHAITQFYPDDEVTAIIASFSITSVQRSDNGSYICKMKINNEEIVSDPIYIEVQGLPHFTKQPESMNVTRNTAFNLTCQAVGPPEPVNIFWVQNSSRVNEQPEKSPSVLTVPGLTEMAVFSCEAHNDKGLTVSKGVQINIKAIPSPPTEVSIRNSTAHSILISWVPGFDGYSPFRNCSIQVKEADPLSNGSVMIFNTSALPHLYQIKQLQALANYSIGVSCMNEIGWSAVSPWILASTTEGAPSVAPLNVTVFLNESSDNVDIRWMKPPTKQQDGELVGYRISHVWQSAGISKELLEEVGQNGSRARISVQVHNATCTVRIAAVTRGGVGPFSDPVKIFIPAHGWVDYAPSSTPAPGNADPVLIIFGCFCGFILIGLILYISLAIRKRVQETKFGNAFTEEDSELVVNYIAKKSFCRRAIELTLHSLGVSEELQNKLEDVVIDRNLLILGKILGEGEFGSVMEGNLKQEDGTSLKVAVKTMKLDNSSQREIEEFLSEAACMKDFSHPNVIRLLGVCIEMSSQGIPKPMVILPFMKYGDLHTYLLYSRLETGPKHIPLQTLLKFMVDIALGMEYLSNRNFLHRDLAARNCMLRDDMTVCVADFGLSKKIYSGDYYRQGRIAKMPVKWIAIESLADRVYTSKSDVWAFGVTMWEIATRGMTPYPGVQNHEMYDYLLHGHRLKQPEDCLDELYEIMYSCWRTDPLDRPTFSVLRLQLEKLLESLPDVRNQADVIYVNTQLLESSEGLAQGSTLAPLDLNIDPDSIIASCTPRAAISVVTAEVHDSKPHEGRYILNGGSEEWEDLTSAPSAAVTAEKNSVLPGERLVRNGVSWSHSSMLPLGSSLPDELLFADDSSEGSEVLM

| Compound | residual activity ([1]; compound 1.0 µM) [%] | residual activity ([2]; compound 10.0 µM) [%] | residual activity ([3]; compound 10.0 µM) [%] | residual activity ([1]; compound 10.0 µM) [%] | residual activity ([4]; compound 1.0 µM) [%] | residual activity ([4]; compound 10.0 µM) [%] | residual activity ([5]; compound 10.0 µM) [%] | residual activity ([2]; compound 1.0 µM) [%] | residual activity ([3]; compound 1.0 µM) [%] | residual activity ([6]; compound 1.0 µM) [%] | residual activity ([6]; compound 10.0 µM) [%] | residual activity ([7]; compound 1.0 µM) [%] | residual activity ([7]; compound 10.0 µM) [%] | residual activity ([8]; compound 1.0 µM) [%] | residual activity ([8]; compound 10.0 µM) [%] | residual activity ([5]; compound 1.0 µM) [%] |
| --- | --- | --- | --- | --- | --- | --- | --- | --- | --- | --- | --- | --- | --- | --- | --- | --- |
| CN[C@@H]1C[C@H]2O[C@@](C)([C@@H]1OC)n1c3ccccc3c3c4c(c5c6ccccc6n2c5c31)C(=O)NC4 | 0 | 0 | 80 | – | – | – | – | – | – | – | – | – | – | – | – | – |
| COC(=O)[C@]1(O)C[C@@H]2O[C@@]1(C)n1c3ccccc3c3c4c(c5c6ccccc6n2c5c31)C(=O)NC4 | 0 | 0 | – | 0 | 0 | -6 | -1 | – | – | – | – | – | – | – | – | – |
| O=C1Nc2ccccc2/C1=C1\Nc2ccccc2\C1=N/O | 37 | -3 | 66 | 5 | 101 | 76 | 0 | -2 | 89 | 64 | 22 | 98 | 92 | 91 | 83 | 7 |
| O=C1c2ccccc2-c2n[nH]c3cccc1c23 | 38 | 9 | 61 | 6 | 79 | 69 | 2 | 22 | 69 | 89 | 57 | 104 | 105 | 86 | 82 | 19 |
